Our source for the Ki values is ChEMBL document CHEMBL3638741, “Azabenzothiazole compounds, compositions and methods of use” (2014).

This assay has as its target Non-receptor tyrosine-protein kinase TYK2 (Homo sapiens, UniProt P29597). Description: Reactions were incubated at 22° C. in 384-well polypropylene microtiter plates for 30 minutes and then stopped by addition of 25 μL of an EDTA containing solution (100 mM Hepes pH 7.2, 0.015% Brij-35, 150 mM EDTA), resulting in a final EDTA concentration of 50 mM. Ki values were then determined using the Morrison tight binding model. Morrison, J. F., Biochim. Biophys. Acta. 185:269-296 (1969); William, J. W. and Morrison, J. F., Meth. Enzymol., 63:437-467 (1979).

For orientation: Ki means a measure of affinity in units of concentration, obtained from inhibition or displacement. High values mean a looser hold on the target, low ones a stronger hold on the target.

Chain of Non-receptor tyrosine-protein kinase TYK2 (P29597 whole entry): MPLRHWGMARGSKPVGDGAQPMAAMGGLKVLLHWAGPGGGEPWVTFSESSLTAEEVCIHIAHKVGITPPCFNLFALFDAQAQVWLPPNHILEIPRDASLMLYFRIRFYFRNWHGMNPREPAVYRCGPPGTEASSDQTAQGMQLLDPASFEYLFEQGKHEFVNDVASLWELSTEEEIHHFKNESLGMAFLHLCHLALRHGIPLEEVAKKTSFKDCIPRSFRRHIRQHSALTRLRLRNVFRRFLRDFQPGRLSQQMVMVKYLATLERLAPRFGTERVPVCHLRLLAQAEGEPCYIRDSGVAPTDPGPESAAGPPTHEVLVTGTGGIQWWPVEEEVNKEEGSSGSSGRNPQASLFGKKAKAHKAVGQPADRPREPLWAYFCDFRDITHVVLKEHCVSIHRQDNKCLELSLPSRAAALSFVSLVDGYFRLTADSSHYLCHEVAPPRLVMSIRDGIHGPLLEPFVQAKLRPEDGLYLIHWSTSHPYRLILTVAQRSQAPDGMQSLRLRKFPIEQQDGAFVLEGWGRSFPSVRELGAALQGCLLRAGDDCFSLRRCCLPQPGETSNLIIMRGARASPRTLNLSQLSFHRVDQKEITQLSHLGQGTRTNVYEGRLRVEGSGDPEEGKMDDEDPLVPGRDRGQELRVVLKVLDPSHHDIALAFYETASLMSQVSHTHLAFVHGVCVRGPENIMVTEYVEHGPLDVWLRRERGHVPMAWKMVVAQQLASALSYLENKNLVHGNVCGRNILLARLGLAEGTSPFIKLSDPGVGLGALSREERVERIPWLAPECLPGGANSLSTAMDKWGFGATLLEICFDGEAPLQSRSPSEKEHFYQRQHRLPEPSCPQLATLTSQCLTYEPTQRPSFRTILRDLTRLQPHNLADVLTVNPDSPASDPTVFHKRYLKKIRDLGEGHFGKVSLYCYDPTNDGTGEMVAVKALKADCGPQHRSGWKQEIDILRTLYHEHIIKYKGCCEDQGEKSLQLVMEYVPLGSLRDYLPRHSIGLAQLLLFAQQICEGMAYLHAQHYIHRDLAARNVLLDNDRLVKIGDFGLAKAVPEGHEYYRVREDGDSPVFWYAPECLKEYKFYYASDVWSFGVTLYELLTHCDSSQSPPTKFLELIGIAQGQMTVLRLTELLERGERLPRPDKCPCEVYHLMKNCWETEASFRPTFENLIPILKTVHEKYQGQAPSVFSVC

In turn, `COC(=O)Nc1nccc2nc(-c3c(Cl)cccc3Cl)sc12` had a Ki of 1.4 nM.

Turning to `OC1CN(c2cc(Nc3ncnc4nc(-c5c(Cl)cccc5Cl)sc34)ncn2)C1`, the affinity, expressed as Ki, was 87 nM.
